Reference: patent US20210349097A1, “BIOMARKERS FOR A COMBINATION THERAPY COMPRISING LENVATINIB AND EVEROLIMUS” (Eisai R&D Management Co., Ltd., priority 2018, published 2021)

Legend:
Assay type in all cases: in vivo, human
[1] = tested on: metastatic renal cell carcinoma (RCC); assay: Phase 2 study in metastatic RCC after prior VEGF-targeted therapy: progression free survival (PFS) by baseline serum biomarker / composite biomarker score
Experimental: (§1) A Phase 2 study for lenvatinib was performed in patients with metastatic renal cell carcinoma (RCC) following a VEGF-targeted therapy. Patients having metastatic renal cell carcinoma after a prior VEGF-targeted therapy received lenvatinib mesylate (“lenvatinib”), everolimus, or the combination thereof until disease progression or development of unmanageable toxicities. A total of 153 subjects were randomized into 3 treatment arms to receive:
(§2) 1) 18 mg/day lenvatinib (as lenvatinib free base; the same shall apply hereinafter)+5 mg/day everolimus (Arm A [LEN/EVE treatment arm], N=51),
(§3) 2) lenvatinib 24 mg/day (Arm B [LEN treatment arm], N=52), or
(§4) 3) everolimus 10 mg/day (Arm C [EVE treatment arm], N=50).
(§5) Each Cycle consisted of 4 weeks (28 days)
(§6) Blood samples for biomarker assessments were collected from subjects in all 3 treatment arms (LEN/EVE, N=49; LEN, N=51; EVE, N=47; Total, N=147) at Cycle 1 Day 1(pre-treatment). In samples from 145 subjects (94.8% of all Intention to Treat [ITT] population; LEN/EVE, N=49; LEN, N=50; EVE, N=46), 40 candidate biomarkers shown in Table 1 were assayed using 19 preconfigured CustomMAP immunoassay panels and measured by a multiplex flow cytometry-based platform by the manufacturer (Multi-Analyte Profile (MAP)) at a Myriad RBM (Austin, Tex., USA).
For baseline levels of each serum biomarker, correlation analyses with PFS were performed using univariate Cox regression in each of the 3 arms. Hazard ratio (HR) for biomarkers with continuous values was calculated as a ratio of hazards between measured values with one standard deviation (HR per standard deviation). Baseline serum IL-18BP levels were associated with PFS in the LEN/EVE arm (Table 2). In the following tables, FDR refers to False Discovery Rate, MST refers to Median Survival Time and CI refers to Confidence Interval.
For IL-18BP, dichotomized analysis was performed to correlate baseline serum biomarker levels in subjects with low and high levels with PFS in the 3 arms. The cutoff points were median, first tertile, second tertile, first quartile or third quartile. Association between the groups and PFS was explored using univariate Cox regression and the log-rank test with each of the selected cutoff points. At the second tertile cutoff point, median PFS for the high IL-18BP group (5.6 months) was shorter than that for the low group (17.5 months) in the LEN/EVE arm (Table 3).
(§7) For each biomarker integrated into the CBS, a value of 1 was assigned if the respective baseline biomarker level fell within the range determined to associate with longer survival in the single biomarker cutoff analysis; a value of 0 was assigned if the respective baseline biomarker level was categorized in the range associated with shorter survival. The sum of the individual values (0 vs. 1 for each of the 5 biomarkers) was computed as a CBS for each subject (range 0-5). Patients were then dichotomized per CBS as low and high groups (0 vs. 1-5, 0-1 vs. 2-5, 0-2 vs. 3-5, 0-3 vs. 4-5, and 0-4 vs. 5). Associations between the groups and PFS were explored using univariate Cox regression and the log-rank test with each of the selected dichotomization points in each treatment arm. Interaction P values were estimated by multivariate Cox regression analysis with treatment arm, baseline level and PFS. Associations between the groups and objective response rate (ORR) were also explored using Fisher's exact test.
(§8) For each biomarker integrated into the CBS, a value of 1 was assigned if the respective baseline biomarker level fell within the range determined to associate with longer survival in the single biomarker cutoff analysis; a value of 0 was assigned if the respective baseline biomarker level was categorized in the range associated with shorter survival. The sum of the individual values (0 vs. 1 for each of the 2 biomarkers) was computed as a CBS for each subject (range 0-2). […]

[2] = tested on: metastatic renal cell carcinoma (RCC); assay: Phase 2 study in metastatic RCC after prior VEGF-targeted therapy: overall survival (OS) by baseline serum biomarker / composite biomarker score
Experimental: as §1, §2, §3, §4, §5, §6
For baseline levels of each serum biomarker, correlation analyses with OS were performed using univariate Cox regression in each of the 3 arms. Hazard ratio (HR) for biomarkers with continuous values was calculated as a ratio of hazards between measured values with one standard deviation (HR per standard deviation). Baseline serum FGF-21, ICAM-1, and M-CSF levels were associated with OS in the LEN/EVE arm (Table 4).
For FGF-21, ICAM-1, and M-CSF, dichotomized analyses were performed to correlate baseline serum biomarker levels in subjects with low and high levels with OS in the 3 arms using univariate Cox regression and the log-rank test at median cutoff point. Low baseline levels of FGF-21, ICAM-1, and M-CSF were associated with longer OS in the LEN/EVE arm (Table 5).
as §7, with “the range previously determined to” for “the range determined to”, “longer survival on single biomarker” for “longer survival in the single biomarker”, “subject (range 0-5; high=favorable survival). Patients were” for “subject (range 0-5). Patients were”, “groups and OS were explored” for “groups and PFS were explored”, “level and OS. Associations between” for “level and PFS. Associations between”
as §7, with “2” for “5”, “0-2).” for “0-5).”, “1-2 and” for “1-5,”, “2).” for “2-5, 0-2 vs. 3-5, 0-3 vs. 4-5, and 0-4 vs. 5).”, “OS” for “PFS”, “Interaction P values were estimated by multivariate Cox regression analysis with treatment arm, baseline level and PFS. Associations between the groups and objective response rate (ORR) were also explored using Fisher's exact test.” left out

[3] = tested on: metastatic renal cell carcinoma (RCC); assay: Phase 2 study in metastatic RCC after prior VEGF-targeted therapy: objective response rate (ORR) by composite biomarker score
Experimental: as §1, §2, §3, §4, §5, §6, §7
as §7, with “the range previously determined to” for “the range determined to”, “longer survival on single biomarker” for “longer survival in the single biomarker”, “subject (range 0-5; high=favorable survival). Patients were” for “subject (range 0-5). Patients were”, “groups and OS were explored” for “groups and PFS were explored”, “level and OS. Associations between” for “level and PFS. Associations between”
as §8

[4] = 5-marker CBS (HGF, MIG, IL-18BP, IL-18, ANG-2)
[5] = 5-marker CBS (TIMP-1, M-CSF, IL-18BP, ANG-2, VEGF-A)

With CO[C@H]1C[C@@H]2CC[C@@H](C)[C@@](O)(O2)C(=O)C(=O)N2CCCC[C@H]2C(=O)O[C@H]([C@H](C)C[C@@H]2CC[C@@H](OCCO)[C@H](OC)C2)CC(=O)[C@H](C)/C=C(\C)[C@@H](O)[C@@H](OC)C(=O)[C@H](C)C[C@H](C)/C=C/C=C/C=C/1C [EVE, (1R,9S,12S,15R,16E,18R,19R,21R,23S,24E,26E,28E,30S,32S,35R)-1,18-dihydroxy-12-{(1R)-2-[(1S,3R,4R)-4-(2-hydroxyethoxy)-3-methoxycyclohexyl]-1-methylethyl}-19,30-dimethoxy-15,17,21,23,29,35-hexamethyl-11,36-dioxa-4-aza-tricyclo[30.3.1.0^4,9]hexatriaconta-16,24,26,28-tetraene-2,3,10,14,20-pentaone] the “mPFS, CBS High (1-2)” value ([1]; 2-marker CBS (IL-18BP, ANG-2)) was 5.5 mo, the “mPFS, CBS Low (0)” value ([1]; 2-marker CBS (IL-18BP, ANG-2)) was 3.0 mo and the “mPFS, high CBS score (1-2)” value ([1]; 2-marker CBS (IL-18BP, ANG-2)) was 5.5 months. For the same molecule, the “mPFS, CBS High (3-5)” value [1, 4] was 3.6 mo, the “mPFS, CBS Low (0-2)” value [1, 4] was 5.5 mo and the “mPFS, high CBS score (3-5)” value [1, 4] was 3.6 months. The “MST (median PFS), IL-18BP High Group” value ([1]; baseline serum IL-18BP high, cutoff quantile 0.67 (second tertile)) was 3.5 months, the “MST (median PFS), IL-18BP Low Group” value ([1]; baseline serum IL-18BP low, cutoff quantile 0.67 (second tertile)) was 5.5 months and the “HR (95% CI) PFS, IL-18BP low and high groups” value ([1]; cutoff quantile 0.67 (second tertile), univariate Cox regression) was 1.194. For the same molecule, the “HR (95% CI), baseline IL-18BP with PFS” value ([1]; univariate Cox regression, HR per standard deviation of baseline serum IL-18BP) was 1.207, the “HR OS, high CBS (1-2) vs low CBS (0) within arm” value ([2]; 2-marker CBS (IL-18BP, ANG-2)) was 0.461 and the “mOS, CBS High (1-2)” value ([2]; 2-marker CBS (IL-18BP, ANG-2)) was 17.5 mo. The “mOS, CBS Low (0)” value ([2]; 2-marker CBS (IL-18BP, ANG-2)) was 11.4 mo, the “mOS, high CBS score (1-2)” value ([2]; 2-marker CBS (IL-18BP, ANG-2)) was 17.5 months and the “mOS, low CBS score (0)” value ([2]; 2-marker CBS (IL-18BP, ANG-2)) was 11.4 months. For the same molecule, the “mOS, CBS High (3-5)” value [2, 5] was 17.4 mo, the “mOS, CBS Low (0-2)” value [2, 5] was 15.0 mo and the “mOS, high CBS score (3-5)” value [2, 5] was 17.4 months. For the same molecule, the “MST (median OS), FGF-21 High” value ([2]; baseline FGF-21 high, cutoff quantile 0.5 (median)) was 19.5, the “MST (median OS), FGF-21 Low” value ([2]; baseline FGF-21 low, cutoff quantile 0.5 (median)) was 15.3 and the “MST (median OS), ICAM-1 High” value ([2]; baseline ICAM-1 high, cutoff quantile 0.5 (median)) was 18.5. For the same molecule, the “MST (median OS), ICAM-1 Low” value ([2]; baseline ICAM-1 low, cutoff quantile 0.5 (median)) was 13.3, the “MST (median OS), M-CSF High” value ([2]; baseline M-CSF high, cutoff quantile 0.5 (median)) was 15.4 and the “MST (median OS), M-CSF Low” value ([2]; baseline M-CSF low, cutoff quantile 0.5 (median)) was 17.2. For the same molecule, the “HR (95% CI) OS, FGF-21 low and high groups” value ([2]; cutoff quantile 0.5 (median)) was 0.741, the “HR (95% CI) OS, ICAM-1 low and high groups” value ([2]; cutoff quantile 0.5 (median)) was 0.66 and the “HR (95% CI) OS, M-CSF low and high groups” value ([2]; cutoff quantile 0.5 (median)) was 1.146. For the same molecule, the “HR (95% CI), baseline FGF-21 with OS” value ([2]; univariate Cox regression, HR per standard deviation of baseline serum FGF-21) was 0.996, the “HR (95% CI), baseline ICAM-1 with OS” value ([2]; univariate Cox regression, HR per standard deviation of baseline serum ICAM-1) was 1.017 and the “HR (95% CI), baseline M-CSF with OS” value ([2]; univariate Cox regression, HR per standard deviation of baseline serum M-CSF) was 1.366. The “ORR, CBS High (1-2)” value ([3]; 2-marker CBS (IL-18BP, ANG-2)) was 6.9%, the “ORR, CBS Low (0)” value ([3]; 2-marker CBS (IL-18BP, ANG-2)) was 0.0% and the “ORR, CBS High (3-5)” value [3, 4] was 5.0%. For the same molecule, the “ORR, CBS Low (0-2)” value [3, 4] was 4.2%, the “ORR, CBS High (3-5)” value [3, 5] was 5.3% and the “ORR, CBS Low (0-2)” value [3, 5] was 4.0%.
